Laboratory results published in patent publication US8367357B2, “Two secretory luciferases” (National Institute of Advanced Industrial Science and …, priority 2006, dated 2013).

Key:
[1] = residual activity / half life of coelenterazine in solutions with or without antioxidant; assay type: physicochemical; details: 10 μM coelenterazine, 0.1M Tris-HCl pH 7.4/0.3 M Sodium ascorbate vs NaCl, Na2SO3, Thiourea solutions
Experimental: The following four solutions were prepared, coelenterazine was dissolved at a final concentration of 10 μM, and the residual activity of coelenterazine was examined to determine a half life. In FIG. 7, the half life is shown in the solution of (1) 0.1M Tris-HCl pH 7.4/0.3 M NaCl, (2) 0.1M Tris-HCl pH 7.4/0.3 M Sodium ascorbate, (3) 0.1M Tris-HCl pH 7.4/0.2 M Na2SO3 or (4) 0.1M Tris-HCl pH 7.4/0.2 M Thiourea. […] It is desirable to add sodium ascorbate in the dual reporter assay.

[2] = test system: copepod luciferase; test: ratio of luminescence to self-luminescence by copepod luciferase; assay type: biochemical; details: 10 μM or 100 μM coelenterazine, copepod luciferase medium with 10% FBS, with sodium ascorbate salt solution
Experimental: Using the medium (containing 10% FBS) of copepod luciferase secreted from the animal cells, the coelenterazine solution prepared in Example 8 was dissolved at a final concentration of 10 μM or 100 μM, and the resulting solution was mixed with the medium (containing 10% FBS) for the animal cells at 1:1 (volume ratio), and the luminescence for 10 seconds was measured as the background activity. At that time, a reaction solution was 0.1M Tris-HCl pH 7.4/0.3 M, and the effect with or without the addition of 0.3 M […] was examined. The luminescence activity was measured, the ratio of the actually measured value to the self-luminescence (signal to background) was calculated, and collectively shown in FIG. 9. […] This way, the antioxidant has almost no effect on the oxidation reaction by luciferase and could reduce only the background.

[3] = self-luminescence activity of coelenterazine in 10% FBS solution; assay type: physicochemical; details: 10 μM or 100 μM coelenterazine, 10% FBS medium, with sodium ascorbate salt solution
Experimental: The following two solutions were prepared, coelenterazine was dissolved at a final concentration of 10 μM or 100 μM, the solution was mixed with the medium for animal cells (solution containing 10% FBS), and the luminescence for 10 seconds was measured as the background. […] The luminescence activity (RLU: relative light unit) was measured, the ratio of its actually measured value to the self-luminescence was calculated and correctively shown in FIG. 8.

In the case of `Oc1ccc(Cc2nc3c(Cc4ccccc4)nc(-c4ccc(O)cc4)cn3c2O)cc1` [coelenterazine], the half life [1] is reported as “widely prolonged”, the “ratio of the luminescence to the self-luminescence (signal to background)” value [2] is reported as “at least two times or more” and the “self-luminescence (background, RLU)” value [3] is reported as “reduction of the self-luminescence”.
